Among the test systems are OVCAR-3; UO-31; SNB-19; KM12; K562; OVCAR-5; SF-539; A549; SK-MEL-5; TK-10; U-251; SK-MEL-2; SF-268; M19-MEL; HL-60; HOP-62; T47D; MDA-MB-231; A498; MDA-MB-435.
Holding throughout (assay): NCI anticancer screen, dose series, 48 h

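Assay format: 96-well plates, 48-hour exposure. At the GI50, growth is halved.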 Calls of active or inactive are those of the source. Rule as the data show it: active = GI50 up to about 1.1 µM and inactive = higher.

On to `COc1ccc(/C=c2/sc3n(c2=O)NC2(CCCCC2)NN=3)cc1`, for which the GI50 in the test with OVCAR-3, in the test on UO-31, with SNB-19, in the test on KM12, in the test with K562 and in the test with OVCAR-5 was > 100 µM (inactive) throughout. The GI50 with SF-539 is > 100 µM (inactive); in the test on A549 it was > 100 µM (inactive); in the test on SK-MEL-5, > 100 µM (inactive); in the test with TK-10 it was > 100 µM (inactive); with U-251 it was > 10 µM (inactive); with SK-MEL-2 it was > 100 µM (inactive). Besides, the GI50 with SF-268 and with M19-MEL was > 100 µM (inactive) in each case.

For `CC(=O)NC1=C(NCCC(C)C)C(=O)c2ccccc2C1=O`, the GI50 with OVCAR-3, with UO-31, with SNB-19, with KM12, in the test on K562 and with HL-60 was > 50 µM (inactive) throughout. Besides, the GI50 with SF-539, in the test with A549, with SK-MEL-5, with TK-10, in the test on U-251 and with SK-MEL-2 was > 50 µM (inactive) in each case. The GI50 with SF-268, with HOP-62 and in the test on M19-MEL was > 50 µM (inactive) in each case.

As to `COC1(OC)CCCCC2c3cccc(OC(C)=O)c3C21OC(C)=O` (stereo unspecified), the GI50 was 94 µM (inactive) in the test on OVCAR-3; 51.6 µM (inactive) in the test with UO-31; > 100 µM (inactive) with SNB-19; > 100 µM (inactive) in the test with KM12; 55.3 µM (inactive) in the test on K562; 65.8 µM (inactive) with HL-60. Also, the GI50 with OVCAR-5, in the test on SF-539, in the test on A549, with SK-MEL-5, in the test with TK-10 and in the test on SK-MEL-2 was > 100 µM (inactive) each time. Besides, the GI50 with SF-268, with HOP-62 and with M19-MEL was > 100 µM (inactive) throughout.

Regarding `CCN1CC(C)Cn2c(=O)[nH]c3cc(Br)cc1c32` (stereo unspecified), the GI50 with T47D is 18.5 µM (inactive); with OVCAR-3, 20.3 µM (inactive); with MDA-MB-231, 22.4 µM (inactive); in the test with UO-31, 40.1 µM (inactive); with SNB-19, 26.4 µM (inactive); in the test on KM12, 22.9 µM (inactive). The GI50 in the test on K562 is 2.91 µM (inactive); in the test on HL-60, 7.19 µM (inactive); in the test on OVCAR-5, 70.5 µM (inactive); in the test with A498, 16.9 µM (inactive); with SF-539, 29.8 µM (inactive); in the test with A549 it was 25.6 µM (inactive). Also, the GI50 is 19.1 µM (inactive) with SK-MEL-5; 25 µM (inactive) with TK-10; 24 µM (inactive) with U-251; 23.9 µM (inactive) with SK-MEL-2; 10.9 µM (inactive) in the test on SF-268; 2.75 µM (inactive) in the test on MDA-MB-435. For the same compound, the GI50 in the test with HOP-62 was 30.5 µM (inactive).

For `Cc1nc(O)nc2nc3ccc(Cl)cc3c(NCCNCCO)c12`, the GI50 in the test with T47D is 10.3 µM (inactive); in the test on OVCAR-3 it was 12.5 µM (inactive); in the test with MDA-MB-231, 11.7 µM (inactive); in the test on UO-31, 8.65 µM (inactive); in the test on SNB-19, 9.06 µM (inactive); with KM12, 10.8 µM (inactive). Moreover, the GI50 is 8.59 µM (inactive) in the test on K562; 90.4 µM (inactive) with HL-60; 13.2 µM (inactive) with OVCAR-5; 20.3 µM (inactive) with A498; 7.16 µM (inactive) with SF-539; 17.4 µM (inactive) in the test with A549. The GI50 in the test on SK-MEL-5 is 12.3 µM (inactive); in the test on TK-10, 18.7 µM (inactive); in the test with U-251, 8.73 µM (inactive); with SK-MEL-2, 14.9 µM (inactive); in the test on SF-268 it was 10.1 µM (inactive); with MDA-MB-435 it was 13 µM (inactive). For the same compound, the GI50 in the test with HOP-62 is 8.05 µM (inactive).

In the case of `C=CC[C@H](N=C(SC)SC)C(=O)N1C(=O)N(C)[C@@H](C)[C@H]1c1ccccc1`, the GI50 in the test with T47D is 40.5 µM (inactive); with OVCAR-3, 29.4 µM (inactive); in the test with MDA-MB-231, > 100 µM (inactive); in the test on UO-31 it was 47.9 µM (inactive); in the test with SNB-19, 58.7 µM (inactive); in the test on KM12 it was 36.2 µM (inactive). In addition, the GI50 with K562 was 29.6 µM (inactive); with HL-60, 34 µM (inactive); with OVCAR-5, 54.6 µM (inactive); with A498 it was 56.8 µM (inactive); with SF-539, 36.4 µM (inactive); in the test with A549 it was 35.3 µM (inactive). In addition, the GI50 is 20 µM (inactive) with SK-MEL-5; 44.2 µM (inactive) in the test with TK-10; 40.8 µM (inactive) in the test on U-251; 30 µM (inactive) in the test with SK-MEL-2; 26.5 µM (inactive) in the test on SF-268; 33.8 µM (inactive) in the test with MDA-MB-435. In addition, the GI50 with HOP-62 is 46.5 µM (inactive).

On to `CC1Oc2cc3c(-c4c(O)cc(O)c5c(O)c6c(cc45)OC(C)C(C)C6=O)c(O)cc(O)c3c(O)c2C(=O)C1C` (stereo unspecified), for which the GI50 in the test on T47D was 0.259 µM (active); in the test with OVCAR-3, 0.255 µM (active); with MDA-MB-231, 0.0925 µM (active); in the test on UO-31, 0.213 µM (active); with SNB-19 it was 0.0832 µM (active); in the test with KM12 it was 0.0607 µM (active). For the same compound, the GI50 is 0.0526 µM (active) with K562; 0.24 µM (active) in the test on HL-60; 0.55 µM (active) in the test with OVCAR-5; 0.155 µM (active) in the test with A498; 0.15 µM (active) in the test on SF-539; 0.0252 µM (active) in the test on A549. Further, the GI50 with SK-MEL-5 is 0.158 µM (active); with TK-10, 0.27 µM (active); with U-251, 0.038 µM (active); with SK-MEL-2 it was 0.101 µM (active); with SF-268, 0.254 µM (active); in the test on MDA-MB-435, 0.24 µM (active). Besides, the GI50 with HOP-62 is 0.282 µM (active).

As to `Oc1ccc(Br)cc1/C=N/c1cccc(C(F)(F)F)c1`, the GI50 with T47D is 19.9 µM (inactive); in the test with OVCAR-3, 37 µM (inactive); with MDA-MB-231, 23.4 µM (inactive); with UO-31, 35.6 µM (inactive); in the test on SNB-19 it was 39.4 µM (inactive); in the test on KM12, 36.6 µM (inactive). Moreover, the GI50 with K562 was 12.4 µM (inactive); in the test with HL-60 it was 3.2 µM (inactive); in the test on OVCAR-5 it was > 100 µM (inactive); with A498, > 100 µM (inactive); in the test with SF-539 it was 20.8 µM (inactive); in the test on A549 it was > 100 µM (inactive). Also, the GI50 was 28.3 µM (inactive) in the test with SK-MEL-5; > 100 µM (inactive) in the test on TK-10; 6.89 µM (inactive) in the test with U-251; 19.5 µM (inactive) in the test on SK-MEL-2; 8.69 µM (inactive) in the test with SF-268; 30.5 µM (inactive) in the test with MDA-MB-435. The GI50 in the test with HOP-62 is 49.5 µM (inactive).

`CC12CCC(C(Nc3ccccn3)C1=O)C2(C)C` (stereo unspecified): the GI50 in the test on T47D, with OVCAR-3, with MDA-MB-231, in the test on UO-31, with SNB-19 and with KM12 was > 100 µM (inactive) in each case. For the same compound, the GI50 in the test with K562, in the test on HL-60, with OVCAR-5, with A498, with SF-539 and in the test on A549 was > 100 µM (inactive) each time. Besides, the GI50 in the test with SK-MEL-5, in the test with TK-10, with U-251, in the test on SK-MEL-2, in the test on SF-268 and in the test with MDA-MB-435 was > 100 µM (inactive) throughout. Besides, in the test with HOP-62, the GI50 is > 100 µM (inactive).

For `N#Cc1nc(C(F)(F)F)oc1N`, the GI50 in the test with T47D, in the test with OVCAR-3, with MDA-MB-231, in the test on UO-31, with SNB-19 and with KM12 was > 100 µM (inactive) throughout. The GI50 in the test with K562, with HL-60, in the test on OVCAR-5, in the test with A498, with SF-539 and in the test with A549 was > 100 µM (inactive) each time. In addition, the GI50 with SK-MEL-5, with TK-10, in the test on U-251, in the test with SK-MEL-2, with SF-268 and in the test with MDA-MB-435 was > 100 µM (inactive) each time. Further, the GI50 in the test on HOP-62 is > 100 µM (inactive).

On to `Nc1nc(Cl)c(N)c(NCC2(CO)CCC2)n1`, for which the GI50 was 91.8 µM (inactive) in the test on T47D; > 100 µM (inactive) in the test with OVCAR-3; > 100 µM (inactive) in the test with MDA-MB-231; > 100 µM (inactive) with UO-31; > 100 µM (inactive) in the test on SNB-19; > 100 µM (inactive) in the test on KM12. Moreover, the GI50 with K562, in the test on HL-60, in the test on OVCAR-5, in the test on A498, in the test with SF-539 and with A549 was > 100 µM (inactive) each time. Moreover, the GI50 in the test with SK-MEL-5 was 75.9 µM (inactive); with TK-10, > 100 µM (inactive); in the test on U-251, > 100 µM (inactive); in the test on SK-MEL-2, > 100 µM (inactive); with SF-268 it was > 100 µM (inactive); in the test with MDA-MB-435 it was > 100 µM (inactive). For the same compound, in the test with HOP-62, the GI50 is > 100 µM (inactive).

The values above are taken from ChEMBL document CHEMBL1201862, “PubChem BioAssay data set” (2004).
